Assays:
Assay type in all cases: in vivo
[1] = tested on: Green Peach Aphid (Myzus persicae, Mixed Life Stages); assay: Green peach aphid, method a) (leaf dip, pepper plants); settings: 300 ppm; pepper plant leaves dipped; after 5 days
Protocol: (§1) II.2 Green Peach Aphid (Myzus persicae, Mixed Life Stages)
(§2) The active compounds were formulated in 50:50 (v/v) acetone:water and 100 ppm nonionic surfactant (Kinetic®).
Pepper plants in the 2nd leaf-pair stage (variety ‘California Wonder’) were infested with approximately 40 laboratory-reared aphids by placing infested leaf sections on top of the test plants. The leaf sections were removed after 24 hours. The leaves of the intact plants were dipped into gradient solutions of the test compound and allowed to dry. Test plants were maintained under fluorescent light (24 hour photoperiod) at about 25° C. and 20-40% relative humidity. Aphid mortality on the treated plants, relative to mortality on check plants, was determined after 5 days.

[2] = tested on: Cotton Aphid (Aphis gossypii, Mixed Life Stages); assay: Cotton aphid, method a) (cotyledon dip); settings: 300 ppm; cotton cotyledons dipped; counts after 5 days
Source text: (§3) II.1 Cotton Aphid (Aphis gossypii, Mixed Life Stages)
as §2
Cotton plants at the cotyledon stage (one plant per pot) were infested by placing a heavily infested leaf from the main colony on top of each cotyledon. The aphids were allowed to transfer to the host plant overnight, and the leaf used to transfer the aphids was removed. The cotyledons were dipped in the test solution and allowed to dry. After 5 days, mortality counts were made.

[3] = tested on: Cowpea Aphid (Aphis craccivora); assay: Cowpea aphid, sprayed potted cowpea plants; settings: assessed after 24, 72 and 120 hours, read-out: mortality in comparison with untreated controls
Protocol: II.3 Cowpea Aphid (Aphis craccivora)
The active compounds were formulated in 50:50 (v/v) acetone:water. The test solution was prepared at the day of use.
Potted cowpea plants colonized with 100-150 aphids of various stages were sprayed after the pest population had been recorded. Population reduction was assessed after 24, 72, and 120 hours.

[4] = tested on: Vetch Aphid (Megoura viciae); assay: Vetch aphid, bean leaf disks in microtiterplates; settings: foliar, 144 h, test solution 2500 mg/L, bean leaf disks sprayed with 2.5 μl, 6 days
Protocol: II.4 Vetch Aphid (Megoura viciae)
The active compounds were formulated in 1:3 (v/v) DMSO:water with different concentrations of formulated compounds.
Bean leaf disks were placed into microtiterplates filled with 0.8% agar-agar and 2.5 ppm OPUS™. The leaf disks were sprayed with 2.5 μl of the test solution and 5 to 8 adult aphids were placed into the microtiterplates which were then closed and kept at 23±1° C. and 50±5% relative humidity under fluorescent light for 6 days. Mortality was assessed on the basis of vital, reproduced aphids. Aphid mortality and fecundity was then visually assessed.

[5] = tested on: Green Peach Aphid (Myzus persicae, Mixed Life Stages); assay: Green peach aphid, method b) (electrostatic spray, bell pepper plants); settings: 120 h, infested bell pepper plants sprayed, after 5 days, read-out: mortality in comparison with untreated controls
Protocol: as §1
(§4) The active compounds were formulated in cyclohexanone as a 10,0000 ppm solution supplied in 1.3 ml ABgene® tubes. These tubes were inserted into an automated electrostatic sprayer equipped with an atomizing nozzle and they served as stock solutions for which lower dilutions were made in 50% acetone:50% water (v/v). A nonionic surfactant (Kinetic®) was included in the solution at a volume of 0.01% (v/v).
Bell pepper plants at the first true-leaf stage were infested prior to treatment by placing heavily infested leaves from the main colony on top of the treatment plants. Aphids were allowed to transfer overnight to accomplish an infestation of 30-50 aphids per plant and the host leaves were removed. The infested plants were then sprayed by an automated electrostatic plant sprayer equipped with an atomizing spray nozzle. The plants were dried in the sprayer fume hood, removed, and then maintained in a growth room under fluorescent lighting in a 24 hour photoperiod at 25° C. and 20-40% relative humidity. Aphid mortality on the treated plants, relative to mortality on untreated control plants, was determined after 5 days.

[6] = tested on: Boll Weevil (Anthonomus grandis); assay: Boll weevil, insect diet with eggs in 24-well microtiter plates; settings: 120 h, test solution 2500 mg/L, 20 μl sprayed onto insect diet, 5 days, read-out: mortality (egg and larval)
Protocol: II.5 Boll Weevil (Anthonomus grandis)
The compounds were formulated in 75:25 (v/v) water:DMSO.
For evaluating control of boll weevil (Anthonomus grandis) the test unit consisted of 24-well-microtiter plates containing an insect diet and 20-30 A. grandis eggs. Different concentrations of formulated compounds were sprayed onto the insect diet at 20 μl, using a custom built micro atomizer, at two replications. After application, the microtiter plates were incubated at 23±1° C. and 50±5% relative humidity for 5 days. Egg and larval mortality was then visually assessed.

[7] = tested on: Cotton Aphid (Aphis gossypii, Mixed Life Stages); assay: Cotton aphid, method b) (electrostatic spray); settings: 120 h, infested cotton plants sprayed, after 5 days, read-out: mortality in comparison with untreated controls
Protocol: as §3, §4
Cotton plants at the cotyledon stage were infested with aphids prior to treatment by placing a heavily infested leaf from the main aphid colony on top of each cotyledon. Aphids were allowed to transfer overnight to accomplish an infestation of 80-100 aphids per plant and the host leaf was removed. The infested plants were then sprayed by an automated electrostatic plant sprayer equipped with an atomizing spray nozzle. The plants were dried in the sprayer fume hood, removed from the sprayer, and then maintained in a growth room under fluorescent lighting in a 24 hour photoperiod at 25° C. and 20-40% relative humidity. Aphid mortality on the treated plants, relative to mortality on untreated control plants, was determined after 5 days.

[8] = tested on: Green Peach Aphid (Myzus persicae); assay: Green peach aphid through systemic means, artificial diet under membrane; settings: 72 h, pipetted into aphid diet, 3 days, read-out: mortality in comparison with untreated controls
Source text: II.6 Activity Against Green Peach Aphid (Myzus persicae)
For evaluating control of green peach aphid (Myzus persicae) through systemic means the test unit consisted of 96-well-microtiter plates containing liquid artificial diet under an artificial membrane.
The compounds were formulated using a solution containing 75% v/v water and 25% v/v DMSO. Different concentrations of formulated compounds were pipetted into the aphid diet, using a custom built pipetter, at two replications. After application, 5 to 8 adult aphids were placed on the artificial membrane inside the microtiter plate wells. The aphids were then allowed to suck on the treated aphid diet and incubated at about 23+1° C. and about 50+5% relative humidity for 3 days. Aphid mortality and fecundity was then visually assessed.

[9] = tested on: Green Peach Aphids (Myzus persicae); assay: Hydroponic test against green peach aphids (bare root pepper plants); settings: bare roots immersed 24 hours, assay 3 days, read-out: mortality in comparison with untreated controls
Protocol: II.9 Activity in the Hydroponic Tests Against Green Peach Aphids (Myzus persicae)
(§5) Green pepper plants (Capsicum annuum L., variety ‘California Wonder’) were grown in the greenhouse from seed to the second true leaf stage (BBCH 12) in Scott's Metro-Mix® 360 (1 to 2 plants per 2¼″ square pot). Cotyledon leaves were removed and roots were rinsed in tap water until free of soil. The roots were kept moist under a layer of wet paper toweling until all plants had been prepared.
(§6) A 3,400 ppm stock solution was prepared of each test compound using reagent grade acetone as the solvent. Subsequent dilutions of 100 and 10 ppm were prepared from this stock with final dilutions in deionized water in 100 ml amber glass bottles. One bare root plant was placed in each bottle using a foam plug section to centrally secure the stem in the bottleneck. The bare roots were fully-immersed in the test suspensions. Host plants were placed in a plant growth room under continuous GroLux® fluorescent lighting (40 Watt), for 24 hours at 25±2° C. and 20-40% relative humidity.
After exposure of the bare roots to the test suspensions, pieces of pepper plants infested with green peach aphid (Myzus persicae) were placed on top of the test foliage. Insects were allowed to transfer from the host leaves to accomplish an infestation of 40-50 insects per plant. The assay was allowed to run for 3 days in the same growth room as used previously. Assessments included estimates of aphid population density reduction relative to the average density of aphids on the untreated control plants. Phytotoxic responses of the host plants were also recorded at this time.

[10] = tested on: Cotton Aphids (Aphis gossypii); assay: Hydroponic test against cotton aphids (bare root cotton plants); settings: bare roots immersed 24 hours, assay 3 days, read-out: mortality in comparison with untreated controls
Protocol: II.10 Activity in the Hydroponic Tests Against Cotton Aphids (Aphis gossypii)
as §5, with “Cotton” for “Green pepper”, “(Gossypium hirsutum,” for “(Capsicum annuum L.,”, “‘Sure Grow 747’)” for “‘California Wonder’)”
as §6
After exposure of the bare roots to the test suspensions, pieces of cotton plants infested with cotton aphids (Aphis gossypi) were placed on top of the test foliage. Insects were allowed to transfer from the host leaves to accomplish an infestation of 40-50 insects per plant. […] Phytotoxic responses of the host plants were also recorded at this time.

[11] = tested on: Silverleaf Whitefly (Bemisia argentifolii, Adult); assay: Silverleaf whitefly, sprayed cotton plants; settings: 72 h, 3 days after treatment, read-out: mortality in comparison with untreated controls
Protocol: II.7 Silverleaf Whitefly (Bemisia argentifolii, Adult)
as §4
Cotton plants at the cotyledon stage (one plant per pot) were sprayed by an automated electrostatic plant sprayer equipped with an atomizing spray nozzle. The plants were dried in the sprayer fume hood and then removed from the sprayer. Each pot was placed into a plastic cup and 10 to 12 whitefly adults (approximately 3-5 days old) were introduced. The insects were collected using an aspirator and 0.6 cm, nontoxic Tygon® tubing (R-3603) connected to a barrier pipette tip. The tip, containing the collected insects, was then gently inserted into the soil containing the treated plant, allowing insects to crawl out of the tip to reach the foliage for feeding. Cups were covered with a reusable screened lid (150-micron mesh polyester screen PeCap from Tetko, Inc.). […] Mortality was assessed 3 days after treatment, compared to untreated control plants.

Compound: Cn1cc(-c2nncn2-c2cccnc2)c(C(F)(F)F)n1 [Example 1]
- mortality in comparison with untreated controls [1]: at least 90%
- mortality in comparison with untreated controls [2]: at least 75%

Compound: Cc1c(-c2nncn2-c2cccnc2)cnn1CC(F)(F)F [Example 2, 3-{3-[5-Methyl-1-(2,2,2-trifluoroethyl)-1H-pyrazol-4-yl]-[1,2,4]triazol-4-yl}pyridine]
- mortality at 500 ppm [3]: ≥ 75%

Compound: Cc1c(-c2nc(-c3cccnc3)co2)cnn1CC(F)(F)F [Example 4, 3-{2-[5-Methyl-1-(2,2,2-trifluoroethyl)-1H-pyrazol-4-yl]-oxazol-4-yl}pyridine]
- mortality at 2500 µg/mL [4]: ≥ 90%

Compound: Cc1c(-c2nnc(-c3cccnc3)o2)cnn1CC(F)(F)F [Example 14, 3-{5-[5-Methyl-1-(2,2,2-trifluoroethyl)-1H-pyrazol-4-yl]-[1,3,4]oxadiazol-2-yl}pyridine]
- mortality at 300 ppm [5]: ≥ 75%
- mortality at 2500 µg/mL [6]: ≥ 50%
- mortality at 500 ppm [3]: ≥ 75%
- mortality at 300 ppm [7]: ≥ 75%

Compound: Cc1c(-c2nnc(-c3cccnc3)s2)cnn1CC(F)(F)F [Example 15, 3-{5-[5-Methyl-1-(2,2,2-trifluoroethyl)-1H-pyrazol-4-yl]-[1,3,4]thiadiazol-2-yl}pyridine]
- mortality at 300 ppm [5]: ≥ 75%
- mortality at 2500 µg/mL [6]: ≥ 50%
- mortality at 2500 ppm [8]: 100%
- mortality at 500 ppm [3]: ≥ 75%
- mortality at 100 ppm [9]: ≥ 75%
- mortality at 2500 µg/mL [4]: ≥ 90%
- mortality at 300 ppm [7]: ≥ 75%

Compound: Cc1c(C2=NCCN2c2cccnc2)cnn1CC(F)(F)F [Example 18, 3-{2-[5-Methyl-1-(2,2,2-trifluoroethyl)-1H-pyrazol-4-yl]-4,5-dihydroimidazol-1-yl}pyridine]
- mortality at 300 ppm [5]: ≥ 75%
- mortality at 2500 ppm [8]: 100%
- mortality at 500 ppm [3]: ≥ 75%
- mortality at 100 ppm [10]: ≥ 75%
- mortality at 100 ppm [9]: ≥ 75%
- mortality at 300 ppm [7]: ≥ 75%

Compound: Cc1c(-c2nccn2-c2cccnc2)cnn1CC(F)(F)F [Example 20, 3-{2-[5-Methyl-1-(2,2,2-trifluoroethyl)-1H-pyrazol-4-yl]imidazol-1-yl}pyridine]
- mortality at 300 ppm [5]: ≥ 75%
- mortality at 2500 ppm [8]: 100%
- mortality at 500 ppm [3]: ≥ 75%
- mortality at 100 ppm [10]: ≥ 75%
- mortality at 500 ppm [11]: ≥ 75%
- mortality at 100 ppm [9]: ≥ 75%
- mortality at 2500 µg/mL [4]: ≥ 90%
- mortality at 300 ppm [7]: ≥ 75%

Compound: Cc1c(-c2nc(-c3cccnc3)nn2C)cnn1CC(F)(F)F [Example 38, 3-{1-methyl-5-[5-methyl-1-(2,2,2-trifluoroethyl)-1H-pyrazol-4-yl]-1H-[1,2,4]triazol-3-yl}pyridine]
- mortality at 2500 µg/mL [6]: ≥ 50%

Compound: Cc1c(-c2noc(=O)n2-c2cccnc2)cnn1CC(F)(F)F [Example 39, 3-{3-[5-Methyl-1-(2,2,2-trifluoroethyl)-1H-pyrazol-4-yl]-4H-[1,2,4]oxadiazol-5-on-4-yl}pyridine]
- mortality at 2500 ppm [8]: 100%
- mortality at 500 ppm [3]: ≥ 75%
- mortality at 2500 µg/mL [4]: ≥ 90%

Source: US20130253012A1, “Pyrazole Compounds for Controlling Invertebrate Pests” (BASF SE, priority 2010, published 2013)
